From patent US20220168325A1, “METHODS TO PROMOTE CEREBRAL BLOOD FLOW IN THE BRAIN” (THE UNIVERSITY OF VERMONT, priority 2019, published 2022)

Assays:
Kir2.1 channel [1] = biological target: T1, Kir2.1 channel (Mus musculus, UniProt P35561); experiment: Patch-clamp recording of Kir2.1 currents in freshly isolated brain capillary endothelial cells (cECs)
T1 sequence (P35561 1-428): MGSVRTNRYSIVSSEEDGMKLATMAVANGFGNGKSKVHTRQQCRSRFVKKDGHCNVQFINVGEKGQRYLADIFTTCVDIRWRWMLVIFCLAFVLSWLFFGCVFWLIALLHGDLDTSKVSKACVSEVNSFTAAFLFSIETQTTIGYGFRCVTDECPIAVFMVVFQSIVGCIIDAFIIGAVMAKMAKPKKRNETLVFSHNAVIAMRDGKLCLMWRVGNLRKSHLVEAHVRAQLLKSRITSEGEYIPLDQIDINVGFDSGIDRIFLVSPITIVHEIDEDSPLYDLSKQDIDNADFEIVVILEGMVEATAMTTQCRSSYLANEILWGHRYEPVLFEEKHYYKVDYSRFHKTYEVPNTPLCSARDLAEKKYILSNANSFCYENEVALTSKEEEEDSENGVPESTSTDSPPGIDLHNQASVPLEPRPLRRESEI

[2] = system: K+-evoked capillary hyperemia; experiment: In vivo two-photon imaging of K+-evoked capillary RBC flux through cranial window; set-up: species or system C57BL/6J mouse
[3] = system: capillary-to-arteriole electrical signaling; experiment: Ex vivo capillary-parenchymal arteriole (CaPA) preparation: upstream arteriolar dilation to 10 mM K+ on capillaries; set-up: species or system C57BL/6J mouse
Text: Ex Vivo Capillary-Parenchymal Arteriole Preparation. The capillary-parenchymal arteriole (CaPA) preparation was obtained by dissecting parenchymal arterioles arising from the M1 region of the middle cerebral artery, leaving the attached capillary bed intact, as reported recently (Longden et al, “Capillary K^+-Sensing Initiates Retrograde Hyperpolarization to Increase Local Cerebral Blood Flow,” Nat. Neurosci. 20:717-726 (2017), which is hereby incorporated by reference in its entirety). Precapillary arteriolar segments were cannulated on glass micropipettes on a Living Systems Instrumentation pressure myograph, with one end occluded by a tie. The ends of the capillaries were then sealed by the downward pressure of an overlying glass micropipette. Application of pressure (40 mmHg) to the cannulated parenchymal arteriole segment in this preparation pressurized the entire tree and induced myogenic tone in the parenchymal arteriole segment. With this preparation, 10 mM K^+ was applied onto capillaries by pressure ejection from a glass micropipette (tip diameter, ˜5 μm) attached to a Picospritzer III (Parker) at ˜5 psi for 18 s. Luminal diameter in parenchymal arterioles was acquired in one region of the arteriolar segment at 15 Hz using IonWizard 6.2 edge-detection software (IonOptix). Changes in arteriolar diameter were calculated from the average luminal diameter measured over the last 10 s of stimulation and were normalized to the maximum dilatory responses in 0 mM Ca^2+ bath solution at the end of each experiment.
Capillary Kir2.1 channels sense increases in [K^+]o caused by increased neuronal activity and initiate a hyperpolarizing signal. By virtue of strong electrical coupling between endothelial cells, retrograde hyperpolarization ascends to upstream feeding arterioles to enhance cerebral blood flow to the site of signal initiation (Longden et al, “Capillary K^+-Sensing Initiates Retrograde Hyperpolarization to Increase Local Cerebral Blood Flow,” Nat. Neurosci. 20:717-726 (2017), which is hereby incorporated by reference in its entirety). […] During this lag period, Kir2.1 currents recorded in the perforated-patch configuration declined steadily (τdecay≈12 minutes), but K^+-mediated retrograde dilatory signaling remained intact until Kir2.1 currents reached ˜50% of their maximal amplitude (FIG. 7C).

functional hyperemia = experiment: Whisker stimulation-induced functional hyperemia in vivo (laser Doppler flowmetry, somatosensory cortex); set-up: species or system TgNotch3^WT and TgNotch3^R169C mice; conditions: for CBF responses to whisker stimulation: 20 nM HB-EGF perfused over cranial window
Kir2.1 channel [4] = biological target: T1, Kir2.1 channel; experiment: Patch-clamp Ba2+-sensitive Kir2.1 current in cECs from transgenic mice; format: cell-based, TgNotch3^WT and TgNotch3^R169C mice; set-up: freshly isolated capillary endothelial cells from TgNotch3^WT and TgNotch3^R169C brains; endogenous in cells; host or cells: freshly isolated brain capillary endothelial cells from TgNotch3^WT and TgNotch3^R169C mice (FVB/N background); conditions: for Kir2.1 current density: HB-EGF (30 ng/ml, 20 minutes)
intracerebral arterioles = experiment: Luminal diameter of isolated pressurized parenchymal arterioles; set-up: species or system TgNotch3^WT and TgNotch3^R169C mice; conditions: bath soluble PIP2 10 μM; TgNotch3^WT and TgNotch3^R169C arterioles
Method: FIGS. 21A and 21B show typical recordings of luminal diameter of pressurized parenchymal arterioles from TgNotch3^WT (control) and TgNotch3^R169C (CADASIL) mice. NS309 and U46619 are used to test the ability of the arteriole to dilate and constrict, respectively. Bath application of soluble PIP2 at 10 μM has little effect on arteriole diameter.

[5] = system: capillary-to-arteriole electrical signaling; experiment: Ex vivo CaPA preparation from transgenic mice: arteriolar tone and dilation to capillary 10 mM K+; conditions: for Upstream arteriole response to 10 mM K+ on capillaries: CaPA from endothelial specific Kir2.1^-/- (Kir channel deficient) mice, HB-EGF or soluble PIP2 present; for Arteriolar dilation in response to capillary stimulation with 10 mM K+: 1 mM 4-AP, 30 ng/mL HB-EGF bath, or exogenous PIP2 bath
[6] = bath-applied PGE2 1 μM or carbachol 10 μM

With C[N+](C)(C)CCOC(N)=O [carbachol] the “Kir2.1 current decline at X0 (12 minutes)” value (Kir2.1 channel [1]; carbachol 10 μM, perforated patch) was roughly 58%, the “Time constant of exponential decay of Kir2.1 current (τdecay)” value (Kir2.1 channel [1]; perforated patch, PGE2 2 μM or carbachol 10 μM applied at t0) was 8 min and the “K+-induced increase in capillary RBC flux” value ([2]; carbachol 0.6 μg/kg intravascular, t=20 minutes after injection, 10 mM K+, saline controls 52±12%) was 10±6%. For the same compound, the “Baseline capillary RBC flux (before K+ application)” value ([2]; carbachol 0.6 μg/kg, over 30 minutes) was “did not change”, the “Lag phase (X0) before inhibition of capillary-mediated arteriolar dilation” value [3, 6] was “≈ 12 minutes” and the “Time constant of postplateau exponential decay of K+-induced dilation (τdecay)” value [3, 6] was “≈ 13 minutes”. For the same compound, the “K+-induced upstream arteriolar vasodilation” value ([3]; bath-applied PGE2 1 μM or carbachol 10 μM, 10 mM K+ on capillaries) was “similarly suppressed” and the Parenchymal arteriolar diameter ([3]; carbachol, FIGS. 8A-8D) was “minimally altered parenchymal arteriolar diameter”.
For “phosphatidylinositol 4,5-bisphosphate [soluble PIP2]”, the “Functional hyperemia in vivo” value (functional hyperemia; exogenous PIP2 (diC16-PIP2 systemically via femoral artery catheter), CADASIL model mice) was “restored”, the Kir2-mediated current (Kir2.1 channel [4]; exogenous soluble PIP2 10 μM (diC16-PIP2, 20 minutes pre-incubation), CADASIL cECs) was “increased Kir2-mediated current in cECs from CADASIL mice to values observed in control groups” and the Kir current (Kir2.1 channel [4]; intracellular soluble PIP2 via patch pipette (10 μM diC8-PIP2), CADASIL cECs) was “counteracted the reduction in Kir current”. For the same compound, the Arteriole diameter (intracerebral arterioles) was “little effect”, the “Upstream arteriole response to 10 mM K+ on capillaries” value [5] was “absence of effect” and the “Arteriolar dilation in response to capillary stimulation with 10 mM K+” value ([5]; TgNotch3^R169C CaPA) was “restored”.
For [Ba+2] [Ba^2+], the “Effect on CBF responses to whisker stimulation” value (functional hyperemia; 100 μM Ba2+, TgNotch3^R169C mice) was “had no effect”, the “Decrease of functional hyperemia” value (functional hyperemia; 100 μM Ba2+, TgNotch3^WT mice) was 60% and the “HB-EGF-mediated increase in functional hyperemia” value (functional hyperemia; Ba2+ in presence of HB-EGF, CADASIL mice) was “inhibited”. The “Inwardly rectifying Kir2.1 currents, block” value (Kir2.1 channel [1]) was “abolished” and the “K+-induced upstream vasodilation” value ([5]; Ba2+, TgNotch3^R169C, Timp3^+/- mice) was “completely abolished”.
In the case of “HB-EGF: heparin-binding epidermal growth factor-like growth factor, EGFR ligand”, the “CBF responses to whisker stimulation” value (functional hyperemia; CADASIL model (TgNotch3^R169C)) is reported as “restored CBF responses to whisker stimulation in CADASIL model to control levels”, the “CBF responses to whisker stimulation” value (functional hyperemia; control mice (TgNotch3^WT)) is reported as “no significant effect” and the Kir2.1 current density (Kir2.1 channel [4]; TgNotch3^R169C cECs) is reported as “restored it”. The Kir2.1 current density (Kir2.1 channel [4]; TgNotch3^WT cECs) was “had no effect”, the “Upstream arteriole response to 10 mM K+ on capillaries” value [5] was “without effect” and the “Time after restoration of myogenic tone until dilation to capillary K+ appeared” value ([5]; HB-EGF 30 ng/mL, TgNotch3^R169C CaPA) was 17 ± 0.5 min. The “Arteriolar dilation in response to capillary stimulation with 10 mM K+” value ([5]; TgNotch3^R169C CaPA) was “gradually increased to the amplitude observed in preparations from the control group”, the “Myogenic tone of arteriolar segment” value ([5]; TgNotch3^R169C, 1 mM 4-AP or 30 ng/mL HB-EGF) was “also restored myogenic tone” and the Arteriolar segment diameter ([5]; bath HB-EGF 30 ng/mL, TgNotch3^R169C CaPA) was “rapid and sustained constriction”.
In the case of COc1ccc([C@@H]2Sc3ccccc3N(CCN(C)C)C(=O)[C@@H]2OC(C)=O)cc1 [diltiazem], the “Arteriolar diameter and capillary RBC flux (maximal response)” value ([2]; 0-mM Ca2+ solution containing 200 μM diltiazem on cranial surface, end of experiment) is reported as “dramatically dilated arterioles and enhanced capillary RBC flux”.
